The source of these data is patent US9161533B2, “Plant pathogen resistance” (priority 2007, dated 2015).

Structures are written as SMILES. “Also recorded” adds a separate entry of the source.

Format in all cases: in vivo, Arabidopsis
The subject of one data set is plant cell. Kind of data set: Toxicity of azelaic acid to plant cell. The following applies: 1 mM in 5 mM MES (pH 5.6). As for the experimental part:
(§1) Biological activity of azelaic acid in inducing disease resistance. 1 mM azelaic acid was infiltrated into leaves 3 and 4 of 3-week old plants. Two days later, plants were inoculated with virulent PmaDG3 onto leaves 3 and 4 or in the upper leaves, which were not pre-treated with azelaic acid (systemic leaves). Azelaic acid (1 mM) dissolved in 5 mM MES (pH 5.6) was not toxic to plant cell. […] Mock-treated and azelaic acid-treated plants were also infiltrated with avirulent derivatives of P. syringae pv. maculicola carrying avrRpt2 (PmaDG6) or avrRpm1 (PmaDG34).

In a further data set the test system is virulent PmaDG3. Kind of data set: Azelaic acid-induced resistance against virulent PmaDG3 infection. The protocol:
(§2) (A) Local and systemic resistance response by azelaic acid treatment against virulent PmaDG3 infections. Local or systemic leaves of 21˜23-day-old plants were treated with 5 mM MES (pH 5.6) (black bars) or 1 mM azelaic acid in 5 mM MES (pH 5.6, white bars) 2 days prior to challenge with the virulent PmaDG3 strain (OD600=0.0001). MES and azelaic acid were introduced into leaves by syringe-infiltration. […] (B) Growth of avirulent strains PmaDG6 (PmaDG3 carrying avrRpt2) and PmaDG34 (PmaDG3 carrying avrRpm1) in leaves of Col pretreated with 5 mM MES (black bars) or 1 mM azelaic acid in 5 mM MES (pH 5.6, white bars). (C) Twenty three-day-old plants were pretreated with 1, 10, 100, and 1000 μM azelaic acid in 5 mM MES or 5 mM MES for 2 days and then subjected to infection with virulent PmaDG3 at OD600=0.0001. […] (D) Plants were treated with 5 mM MES or 1 mM azelaic acid for the indicated times prior to inoculation with virulent PmaDG3. Inoculations with PmaDG3 were performed between noon and 1 pm. Azelaic acid (Aza) in 5 mM MES was applied to plants using a hand-sprayer. The growth of bacteria was measured on day 3 after inoculation. […] (E) Plants were treated and infected as in (D), except that infections were performed between […]. (*p<0.04). These experiments were repeated two to four times to confirm reproducibility.
1 mM azelaic acid in 5 mM MES was applied to wild-type Col, SAR-defective, and SA-deficient mutants (A) and jasmonic acid/ethylene-insensitive mutants (B) 2 days prior to challenge-inoculation of virulent PmaDG3 (OD600=0.0001). […] The experiments were repeated a minimum of three times. The number of asterisks indicates samples that were different from one another at given levels of statistical significance (*p<0.05, **p<0.01).
as §1
PmaDG3 growth was measured after spray treatment of plants with various concentrations of azelaic acid. […] It was also tested whether azelaic acid required a certain induction period for the induced resistance response. […] However, when plants were grown in the dark for 12 hours after treatment, azelaic acid was ineffective at conferring disease resistance (FIG. 3E). […] Thus, azelaic acid induces a light-dependent disease resistance response against infection with P. syringae that is also concentration- and time-dependent.
To further characterize how plants regulate azelaic acid-induced resistance, 1 mM azelaic acid was sprayed onto wild type and several mutant plants 2 days before infection with virulent PmaDG3 and bacterial growth was measured. Unlike wild-type plants, the SA pathway mutants tested were susceptible to virulent PmaDG3 infection regardless of treatment with azelaic acid (FIG. 4A). […] Pathogen resistance was also dependent on […], which is important for SA-induced disease resistance and SAR maintenance in Arabidopsis. The growth of bacteria was also monitored in leaves of JA- and ethylene-insensitive mutants, jar1 and etr1, following treatment with 1 mM azelaic acid.

The test system of a further data set is defense-related genes. The experiment in a line: Defense-related gene expression after azelaic acid treatment (mini array, RT-PCR). The protocol: (§3) (A) Time course of free and total salicylic acid levels in leaves of Col after spray treatments with 5 mM MES (black bars) and 1 mM azelaic acid in 5 mM MES (white bars). (B) Camalexin levels in leaves of Col after azelaic acid treatment by spraying. Each experiment in (A) and (B) was performed with three different samples and the experiments were repeated three times. (C) Expression of an LTP gene (At2g38530) was elevated after azelaic acid treatment performed as in (A), however expression of PR1 and many other defense-related genes was unaffected. RT-PCR (23 cycles) was used to assess gene expression, with EF1a serving as a loading control.
(§4) Since resistance to P. syringae requires activation of SA-dependent defenses accompanied by elevated endogenous SA levels, it was investigated whether azelaic acid directly induces SA accumulation. […] Additionally, the levels of the phytoalexin Camalexin, a defense metabolite, were similar in azelaic acid-treated and mock-treated plants (FIG. 5B). […] To investigate whether azelaic acid might affect additional defense markers, expression of defense-related genes was monitored using a mini array. […] RT-PCR confirmed that At2g38530 was induced by azelaic acid. However, PR1, a SA signaling marker, was not induced by azelaic acid. Thus, azelaic acid appears not to induce large changes in known signaling pathways activated by P. syrinagae, but does induce at least one defense-related gene.

The test system of data set [1] is salicylic acid and camalexin levels. Kind of data set: Endogenous salicylic acid and camalexin levels after azelaic acid spray. The following applies: 1 mM spray, no infection, vs mock. The protocol: as §3
as §4, with “Thus, azelaic acid appears not to induce large changes in known signaling pathways activated by P. syrinagae, but does induce at least one defense-related gene.” left out

Data set [2] deals with PmaDG6 (PmaDG3 carrying avrRpt2). Kind of data set: Growth of avirulent PmaDG6 in azelaic acid-pretreated leaves. The following applies: 1 mM pretreatment. The protocol:
as §2
Biological activity of azelaic acid in inducing disease resistance. […]

The test system of another data set is PR1 expression. The experiment in a line: Priming of PR1 expression after virulent PmaDG3 infection. The following applies: 1 mM spray 2 days before PmaDG3 (OD600=0.01); vs mock. The protocol:
(§5) Five mM MES or 1 mM azelaic acid in 5 mM MES were applied to leaves of wild-type Col Arabidopsis 2 days prior to inoculation of 10 mM MgSO4 (M), virulent PmaDG3 (V) and avirulent PmaDG6 expressing AvrRpt2 (Av). Leaves were collected at different times after inoculation and endogenous free and total SA level was measured. (B) Relative PR1 expression in leaves of mock-treated plants and azelaic acid-treated plants after virulent PmaDG3 infection. The expression of PR1 is plotted on a log scale. The number of asterisks indicates samples that were different from one another at given levels of statistical significance (*p<0.075, **p<0.05, ***p<0.01).
Since SA signaling mutants were compromised in responding to azelaic acid, it was investigated whether azelaic acid might prime SA synthesis or SA-dependent defense responses in plants. To test this, plants were sprayed with 1 mM azelaic acid (or 5 mM MES) and after two days infected with virulent PmaDG3 and avirulent PmaDG6 (carrying avrRpt2) (OD600=0.01). […] The priming effect by azelaic acid was also investigated by analyzing PR1 expression, a molecular marker for SA signaling (FIG. 6B). Mock- and azelaic acid-treated plants were infected with virulent PmaDG3 (OD600=0.01) 2 days after spray treatments. PR1 expression was increased in both azelaic acid treated and untreated plants after infection with the virulent strain. […]

In data set [3] the test system is SA-dependent defense signaling. Kind of data set: Priming of SA accumulation after Pseudomonas syringae infection. The protocol:
as §5
Since SA signaling mutants were compromised in responding to azelaic acid, it was investigated whether azelaic acid might prime SA synthesis or SA-dependent defense responses in plants. To test this, plants were sprayed with 1 mM azelaic acid (or 5 mM MES) and after two days infected with virulent PmaDG3 and avirulent PmaDG6 (carrying avrRpt2) (OD600=0.01). […] The priming effect by azelaic acid was also investigated by analyzing PR1 expression, a molecular marker for SA signaling (FIG. 6B). Mock- and azelaic acid-treated plants were infected with virulent PmaDG3 (OD600=0.01) 2 days after spray treatments. PR1 expression was increased in both azelaic acid treated and untreated plants after infection with the virulent strain. However, the expression was higher in leaves pretreated with azelaic acid after pathogen infection, compared with expression in mock-treated plants following pathogen infection (note the log scale in FIG. 6B).

`O=C(O)CCCCCCCC(=O)O` [azelaic acid]: the “toxicity to plant cell” value with plant cell was “not toxic”. In the data set with virulent PmaDG3 (1 mM hand sprayer, light), the “resistance, pretreatment 12 hours prior to pathogen challenge” value is on record as “low level of resistance”. In the data set on virulent PmaDG3 (1 mM hand sprayer, plants grown in the light), the “resistance, pretreatment 6 hours prior to infection” value is “still susceptible”. Also, the disease symptoms entry with virulent PmaDG3 (1 mM infiltrated 2 days before PmaDG3 challenge) was “significant reduction in the disease symptoms; also recorded: very little disease symptom development”. In addition, the “growth of PmaDG3” value in the data set on virulent PmaDG3 (1 mM infiltrated 2 days before challenge, local and systemic leaves) is given as “reduction in pathogen growth; also recorded: significantly reduced”. For the same compound, in the data set on virulent PmaDG3 (1 mM spray), the “protection, inoculation 48 h after spraying” value is given as “Significant protection”. The “disease resistance, plants in the dark for 12 hours after treatment” value in the data set on virulent PmaDG3 (1 mM spray, dark) is reported as “ineffective”. Also, the “resistance to PmaDG3 in SAR-defective / SA pathway mutants” value with virulent PmaDG3 (1 mM sprayed 2 days before infection) was “did not induce plant resistance; also recorded: susceptible”. In addition, the “resistance in jar1 and etr1 mutants” value with virulent PmaDG3 (1 mM, JA- and ethylene-insensitive mutants) is “did not affect; also recorded: effective in restricting bacterial growth”. Moreover, in the data set with virulent PmaDG3 (1 or 10 μM vs 5 mM MES), the bacterial growth entry is given as “no difference in bacterial growth”. In addition, the “suppression of bacteria growth” value with virulent PmaDG3 (100 and 1000 μM pretreatment) amounted to 10 fold. Moreover, in the data set with virulent PmaDG3 (100 and 1000 μM pretreatment for 2 days), the “resistance to PmaDG3 / growth of bacteria” value is “significant reduction of the growth of bacteria; also recorded: resistant to PmaDG3”. Also, the “At2g38530 expression by RT-PCR” value in the data set with defense-related genes (RT-PCR) was “elevated; also recorded: induced”. In the data set with defense-related genes (azelaic acid alone, no infection), the PR1 expression result was “unaffected; also recorded: not induced”. Further, the “induction of LTP gene At2g38530” value with defense-related genes (mini array) worked out at 3 fold. Further, the “expression of most defense-related genes” value in the data set with defense-related genes (mini array, vs mock) was “unaffected; also recorded: no difference in expression”. Further, in data set [1], the Camalexin levels result is “does not affect; also recorded: similar”; the “free and total SA level” value is recorded as “does not affect; also recorded: no significant difference”. Besides, the “growth of PmaDG6” value in data set [2] is given as “reduction in the growth”. Besides, in the data set with PR1 expression, the “PR1 expression after pathogen infection” value is “higher”. The “levels of free SA” value in data set [3] (1 mM spray 2 days before, 6 and 18 hrs after virulent PmaDG3 infection, vs mock, p<0.05) is “significantly higher”. Further, the “total SA accumulation” value in data set [3] (18 hrs after inoculation with both PmaDG3 and PmaDG6, vs mock, p<0.01) is “higher level”. For the same compound, the “levels of free SA” value in data set [3] (after infection with PmaDG6 (carrying avrRpt2)) was “not statistically significant”. Also, the “Endogenous free and total SA levels during Pseudomonas syringae infections” value in data set [3] (vs mock-treated plants) is on record as “significantly higher”.
